# According to patent publication US20090155395A1 (SAGITTARIUS LIFE SCIENCE CORP., priority 2007, published 2009):
# Where two headings read alike, the source gives them in different places.
# Experiments:
# [1] = biological target: T1, Steroid 5-α-reductase isolated from liver of Wistar rat (Rattus norvegicus, UniProt P24008); assay: Steroid 5-α-reductase inhibition (testosterone EIA); type: biochemical; settings: rat liver enzyme, 1 μM testosterone, 30 minutes
# T1 construct: isolated from liver of Wistar rat by conventional centrifugation; from tissue; host or cells: liver of Wistar rat
# T1 sequence (P24008 1-259): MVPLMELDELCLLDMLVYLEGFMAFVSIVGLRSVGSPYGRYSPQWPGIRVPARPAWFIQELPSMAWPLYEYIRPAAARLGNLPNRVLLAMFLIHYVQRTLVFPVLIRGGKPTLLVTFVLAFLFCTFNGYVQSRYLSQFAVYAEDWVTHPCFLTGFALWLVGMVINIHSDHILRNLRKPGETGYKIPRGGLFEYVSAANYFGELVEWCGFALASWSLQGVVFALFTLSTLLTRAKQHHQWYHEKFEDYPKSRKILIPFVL
# Excerpt: Steroid 5-α-reductase isolated from liver of Wistar rat by conventional centrifugation was used (Liang T, et. al., Endocrinology. 1985;117(2): 571-9).
# The reaction was terminated by addition of 1 N HCl and neutrilized by 1 N NaOH. Testosterone was quantitated by using a Testosterone EIA Kit.
# [2] = system: Propionibacterium acnes (ATCC 6919); assay: Minimum inhibitory concentration (MIC), broth dilution method; type: cell-based
# Description: Minimum inhibitory concentration (MIC) was determined by the broth dilution method (Edwards, J. R. et. al., Antimicrob Agents Chemother. 1989; 33(2):215-22).
# 10 ul aliquot (1% DMSO final concentration) of serial dilutions were added into 0.99 ml of Reinforced Clostridial Medium (Oxiod, England.) with 1-5×10^5 CFU/ml of Propionibacterium acnes (ATCC 6919). […] Vehicle-control and active reference agents were used as blank and positive controls, respectively.
# [3] = Free radical scavenger, SOD mimetic activity (xanthine-xanthine oxidase / NBT reduction); type: biochemical; settings: inhibition of NBT reduction, pH 10.5, 25° C., 20 minutes
# Description: (§1) The method to measure SOD (SOD, EC.1.15.1.1) activity was based on the inhibition of nitroblue tetrazolium reduction with xanthine-xanthine oxidase used as a superoxide generator (Sun Y, et. al., Clin. Chem. 1988; 34: 497-500).
# (§2) Conversion of xanthine to uric acid +O^−+NBT to formazan was then determined by measurement of absorbance at 595 nm and percent inhibition by superoxide dismutase mimetic or test compound was calculated.
# [4] = biological target: xanthine-xanthine oxidase (superoxide generator); assay: Superoxide dismutase (SOD) mimetic activity, inhibition of nitroblue tetrazolium reduction; type: biochemical; settings: 0.12 mM xanthine, 6 mU xanthine oxidase, 27 μM NBT, pH 10.5, 25° C., 20 minutes
# Description: as §1, §2
# [5] = biological target: T2, Human recombinant Cyclooxygenase-2 expressed in Sf21 cells (Homo sapiens, UniProt P35354); assay: COX II inhibition (PGE2 EIA); type: biochemical; settings: human recombinant enzyme, 0.3 μM arachidonic acid
# T2 construct: purchased Sigma C-0858; host or cells: Sf21 cells
# T2 sequence (P35354 18-604): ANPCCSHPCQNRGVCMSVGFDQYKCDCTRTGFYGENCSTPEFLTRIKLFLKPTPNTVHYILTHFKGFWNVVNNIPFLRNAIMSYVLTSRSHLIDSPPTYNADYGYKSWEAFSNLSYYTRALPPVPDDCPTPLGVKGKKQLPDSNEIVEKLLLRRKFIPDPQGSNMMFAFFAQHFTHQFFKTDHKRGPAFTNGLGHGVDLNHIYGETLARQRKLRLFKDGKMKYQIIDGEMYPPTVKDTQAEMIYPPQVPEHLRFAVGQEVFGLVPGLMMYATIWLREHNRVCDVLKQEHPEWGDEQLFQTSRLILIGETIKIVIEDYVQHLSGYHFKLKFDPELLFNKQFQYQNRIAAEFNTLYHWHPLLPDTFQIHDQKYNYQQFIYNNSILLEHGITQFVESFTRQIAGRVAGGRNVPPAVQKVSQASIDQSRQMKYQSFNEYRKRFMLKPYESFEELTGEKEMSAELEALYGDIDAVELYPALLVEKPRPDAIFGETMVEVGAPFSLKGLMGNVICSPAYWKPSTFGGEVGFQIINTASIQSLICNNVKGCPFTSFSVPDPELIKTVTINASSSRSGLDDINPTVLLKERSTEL
# Description: The reaction was initiated by addition of 0.3 μM arachidonic acid for 5 minutes and terminated by further addition of 1 N HCl. Following centrifugation, substrate conversion to PGE2 was measured by an Amersham EIA kit.
# [6] = Cutibacterium acnes, ATCC6919, broth dilution, 37° C., 48 hours, anaerobic, read-out: MIC
molecule,measurement,setting,value
CC(C)(C)NC(=O)[C@H]1CC[C@H]2[C@@H]3CC[C@H]4NC(=O)C=C[C@]4(C)[C@H]3CC[C@]12C [Finasteride],IC50,[1],25 nM
CC1COc2c(N3CCN(C)CC3)c(F)cc3c(=O)c(C(=O)O)cn1c23 (centres unmarked) [Ofloxacin],MIC,[2]; [6],1 µg/mL
O=C(O[C@@H]1Cc2c(O)cc(O)cc2O[C@@H]1c1ccc(O)c(O)c1)c1cc(O)c(O)c(O)c1 [(−)-Epicatechin gallate],"IC50, SOD mimetic activity",[3],2.698 µg/mL
same,IC50,[4],2.698 µg/mL
CN(C)[C@@H]1C(O)=C(C(N)=O)C(=O)[C@@]2(O)C(O)=C3C(=O)c4c(O)cccc4[C@@](C)(O)[C@H]3C[C@@H]12 [Tetracycline],MIC,[2]; [6],1 µg/mL
O=C(O)c1cccnc1Nc1cccc(C(F)(F)F)c1 [Niflumic acid],IC50,[5],691 nM
CN[C@H](CC(C)C)C(=O)N[C@H]1C(=O)N[C@@H](CC(N)=O)C(=O)N[C@H]2C(=O)N[C@H]3C(=O)N[C@H](C(=O)N[C@H](C(=O)O)c4cc(O)cc(O)c4-c4cc3ccc4O)[C@H](O)c3ccc(c(Cl)c3)Oc3cc2cc(c3O[C@@H]2O[C@H](CO)[C@@H](O)[C@H](O)[C@H]2O[C@H]2C[C@](C)(N)[C@H](O)[C@H](C)O2)Oc2ccc(cc2Cl)[C@H]1O [Vancomycin],MIC,"[2]; Cutibacterium acnes, ATCC6919, 48 h",1 µg/mL
CC1(C)S[C@@H]2[C@H](NC(=O)[C@H](N)c3ccccc3)C(=O)N2[C@H]1C(=O)O [Ampicillin],MIC,[2]; [6],0.1 µg/mL
CCCCC/C=C\C/C=C\C/C=C\CCCCC(=O)O [γ-Linolenic Acid],IC50,[1],14000 nM
"Superoxide dismutase (SOD): standard reference agent used, Human SOD MW = 2 × 28.3 KDa","IC50, SOD mimetic activity",[3],0.475 µg/mL
Gentamicin,MIC,"[2]; broth dilution, 37° C., 48 hours, anaerobic",30 µg/mL
